Converted amounts (≈) assume the structure as drawn.
Test: Solubility of celecoxib in aqueous media
Type: physicochemical
Method: However, celecoxib presents certain challenges for formulation as a rapid-onset dosage form, particularly as a rapid-onset oral dosage form. For example, celecoxib has very low solubility in aqueous media (about 2 to about 5 μg/ml) and therefore is not readily dissolved and dispersed for rapid absorption in the gastrointestinal tract when administered orally, for example in tablet or capsule form. In addition, celecoxib has a relatively high dose requirement further increasing difficulties of providing a sufficient therapeutically effective dose for rapid absorption.

Cc1ccc(-c2cc(C(F)(F)F)nn2-c2ccc(S(N)(=O)=O)cc2)cc1 [celecoxib, 4-[5-(4-methylphenyl)-3-(trifluoromethyl)-1H-pyrazol-1-yl]benzenesulfonamide]
solubility: 2 to 5 µg/mL (≈ 5.24 to 13.1 µM)

— patent publication US6864373B2, “Stable amorphous celecoxib composite and process therefor” (Pharmacia Corporation, priority 2002, dated 2005)
